# Assay results reported in publication PMC10926205 (iScience, 2024).
# Entries after “also recorded” stand apart in the source; their conditions may differ. Where two headings read alike, the source gives them in different places.
# Experiments:
# MCF-7 cells = assay: MCF-7 proliferation assay; format: cell-based; settings: 120 h; for increase in cell number of MCF-7 cells: compared with DMSO
# ERβ [1] = target: T1, ERβ (Homo sapiens, UniProt Q92731); assay: cell-based; format: cell-based
# ERα [2] = target: T2, ERα (Homo sapiens, UniProt P03372); assay: cell-based; format: cell-based; settings: for PRL-ERα EC50 (nM) / EC50: array formation (DNA binding), 1 h; for PRL-ERα EC50 (nM) / EC50 / ERα DNA binding and transcription at the 100nM dose: ERα-GFP:PRL-HeLa; for selectivity for either estrogen receptor: ERα vs ERβ array EC50
# T2 sequence (P03372 1-595): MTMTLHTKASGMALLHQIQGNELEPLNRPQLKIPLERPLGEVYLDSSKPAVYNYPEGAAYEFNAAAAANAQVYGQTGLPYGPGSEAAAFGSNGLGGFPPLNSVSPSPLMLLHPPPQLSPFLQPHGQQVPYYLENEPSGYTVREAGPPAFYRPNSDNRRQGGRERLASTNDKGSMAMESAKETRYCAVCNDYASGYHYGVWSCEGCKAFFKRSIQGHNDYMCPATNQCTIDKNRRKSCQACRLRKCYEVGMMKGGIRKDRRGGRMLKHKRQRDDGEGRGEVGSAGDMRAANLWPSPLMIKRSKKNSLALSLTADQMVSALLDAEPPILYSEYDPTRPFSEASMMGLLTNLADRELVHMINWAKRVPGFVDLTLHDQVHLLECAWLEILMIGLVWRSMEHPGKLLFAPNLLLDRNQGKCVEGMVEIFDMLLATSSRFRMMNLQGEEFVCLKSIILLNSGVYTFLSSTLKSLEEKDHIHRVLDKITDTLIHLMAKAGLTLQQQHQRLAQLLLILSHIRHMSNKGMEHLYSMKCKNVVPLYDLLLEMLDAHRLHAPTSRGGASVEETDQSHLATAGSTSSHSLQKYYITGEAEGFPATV
# [3] = tested on: ERE-GFP reporter in the liver; assay: Transgenic zebrafish ERE-GFP reporter, liver; format: in vivo; settings: for ERE-GFP activation in the zebrafish (liver or heart): nonlethal doses tested (<100μM); for ER signal (ERE-GFP) in the liver: highest nonlethal doses tested
# GREB1 [4] = assay: GREB1 mRNA expression by qPCR in MCF-7; format: cell-based; settings: MCF-7, 24 h; for GREB1 transcription (qPCR) compared to DMSO: E2 1nM, IBV 10nM, PHX, genistein, ±equol 100nM, neobavaisoflavone, bavachin, isobavachalcone, daidzein 1μM
# ERα or ERβ = format: cell-based; settings: flavonoid screen, cell line not stated
# ERα [5] = target: T2, ERα; assay: dsRed2 reporter RNA FISH in ERα-GFP:PRL-HeLa; format: cell-based
# [6] = target: T3, progesterone receptor (GFP-PR) (Homo sapiens, UniProt P06401); assay: GFP-PR PRL array biosensor cell line, array formation; format: cell-based; settings: 100nM
# T3 sequence (P06401 679-933 limits assumed): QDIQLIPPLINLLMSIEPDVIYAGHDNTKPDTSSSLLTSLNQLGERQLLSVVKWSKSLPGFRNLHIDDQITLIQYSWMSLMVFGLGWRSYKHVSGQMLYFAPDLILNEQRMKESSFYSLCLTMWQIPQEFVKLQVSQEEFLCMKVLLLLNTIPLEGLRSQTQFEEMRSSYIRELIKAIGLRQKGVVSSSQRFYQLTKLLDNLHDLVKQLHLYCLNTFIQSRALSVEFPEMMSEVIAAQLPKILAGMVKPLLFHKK
# ERβ [7] = target: T1, ERβ; assay: dsRed2 reporter RNA FISH in GFP-ERβ:PRL-HeLa; format: cell-based; settings: highest dose tested (10μM)
# GREB1 [8] = assay: GREB1 smRNA FISH; format: cell-based; settings: MCF-7, 24 h; E2 1nM, IBV 10 and 100nM, PHX 100nM
# [9] = tested on: ERE-GFP in the heart valves; assay: Transgenic zebrafish ERE-GFP reporter, heart valves; format: in vivo; settings: highest nonlethal doses tested
# ERα [10] = settings: read-out: EC50 for displacement of E2 from ERα in rat uteri; cited from earlier work
# [11] = array formation (DNA binding), GFP-ERβ:PRL-HeLa, 1 h
# [12] = read-out: PRL-ERβ EC50, array formation (DNA binding), GFP-ERβ:PRL-HeLa, 1 h
# T1 sequence (Q92731 whole entry): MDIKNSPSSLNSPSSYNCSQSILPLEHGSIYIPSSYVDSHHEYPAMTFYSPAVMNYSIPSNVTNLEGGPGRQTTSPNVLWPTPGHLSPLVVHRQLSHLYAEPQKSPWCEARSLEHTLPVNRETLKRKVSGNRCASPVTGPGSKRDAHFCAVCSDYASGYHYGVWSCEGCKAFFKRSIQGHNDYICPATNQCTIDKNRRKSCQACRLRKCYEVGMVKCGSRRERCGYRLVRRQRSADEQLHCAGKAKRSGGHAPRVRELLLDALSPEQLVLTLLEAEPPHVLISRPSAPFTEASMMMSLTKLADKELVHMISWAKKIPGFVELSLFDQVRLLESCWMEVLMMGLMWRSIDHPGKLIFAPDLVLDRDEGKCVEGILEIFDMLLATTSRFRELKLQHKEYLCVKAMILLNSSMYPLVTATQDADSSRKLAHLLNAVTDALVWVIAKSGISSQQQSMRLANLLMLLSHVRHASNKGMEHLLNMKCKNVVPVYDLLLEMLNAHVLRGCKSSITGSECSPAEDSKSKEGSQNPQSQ
smiles,measurement,setting,value
COc1ccc(CCC(=O)c2ccc(O)cc2)c(OC)c1 [Loureirin A],EC50 in MCF-7 growth assay,MCF-7 cells,sub-micromolar
same,"MCF-7 cell proliferation, reaching the level of E2",MCF-7 cells,not able to reach the level of E2
same,increase in cell number of MCF-7 cells,MCF-7 cells,50%
same,PRL-ERβ EC50 (nM),ERβ [1]; [11],sub-micromolar
same,EC50,ERβ [1]; [12],76.2 nM
same,PRL-ERα EC50 (nM),ERα [2],sub-micromolar
same,EC50,ERα [2]; read-out: PRL-ERα EC50,50 nM
same,ERE-GFP activation in the zebrafish (liver or heart),[3],"Neither isosakuranetin, echinatin, nor loureirin A activated the ERE-GFP"
Oc1ccc([C@H]2COc3cc(O)ccc3C2)cc1 [S-Equol],activity in GFP-ERβ:PRL-HeLa cells at the 100nM dose,ERβ [1]; 100nM,also active
same,ERα DNA binding and transcription at the 100nM dose,ERα [2],induced ERα DNA binding and transcription
CC(C)=CCc1cc(-c2coc3cc(O)ccc3c2=O)ccc1O [Neobavaisoflavone],GREB1 transcription (qPCR) compared to DMSO,GREB1 [4],activation of GREB1 transcription
same,selectivity for either estrogen receptor,ERα [2],> 5 fold
"CN1CC[C@H](c2c(O)cc(O)c3c(=O)cc(-c4ccccc4Cl)oc23)[C@H](O)C1.Cl [Flavopiridol HCl, reference compound]",transcriptional output (dsRed2 FISH) versus DMSO,ERα or ERβ,suppressed transcriptional output to a lower level than DMSO
CN1CCC(c2c(O)cc(O)c3c(=O)cc(-c4ccccc4Cl)oc23)C1CO (stereo not shown) [P276-00],transcriptional output (dsRed2 FISH) versus DMSO,ERα or ERβ,suppressed transcriptional output to a lower level than DMSO; also recorded: suppressed transcription
same,gene transcription (dsRed2 RNA FISH) compared to DMSO,"ERα [5]; 10μM, 1 h, hits in ERα-GFP:PRL-HeLa",suppress gene transcription
"CC(=O)[C@H]1CC[C@H]2[C@@H]3CCC4=CC(=O)CC[C@]4(C)[C@H]3CC[C@]12C [P4, progesterone]",array formation in GFP-PR cell line (controls),[6],successfully induced array formation
C=CC(C)(C)c1cc(/C=C/C(=O)c2ccc(O)cc2)c(OC)cc1O [Licochalcone A],preference for ERβ compared to ERα,ERβ [1]; array EC50,5 fold
same,EC50,ERβ [1]; [12],92.1 nM
same,RNA FISH expression in ERα-GFP:PRL-HeLa,ERα [5]; highest dose tested (10μM),did not activate RNA FISH expression
same,EC50,ERα [2]; read-out: PRL-ERα EC50,508 nM
same,dsRed2 reporter gene activation in GFP-ERβ:PRL-HeLa,ERβ [7],did activate the dsRed2 reporter gene
CC(C)=CCc1cc2c(cc1O)O[C@H](c1ccc(O)cc1)CC2=O [Bavachin],GREB1 transcription (qPCR) compared to DMSO,GREB1 [4],activation of GREB1 transcription
same,selectivity for either estrogen receptor,ERα [2],> 5 fold
CCC(=O)[C@@]1(C)CC[C@H]2[C@@H]3CCC4=CC(=O)CCC4=C3CC[C@@]21C [R5020],array formation in GFP-PR cell line (controls),[6],successfully induced array formation
O=c1c(-c2ccc(O)cc2)coc2cc(O)ccc12 [Daidzein],GREB1 transcription (qPCR) compared to DMSO,GREB1 [4],activation of GREB1 transcription
COc1cc(O)ccc1/C=C/C(=O)c1ccc(O)cc1 [Echinatin],EC50 in MCF-7 growth assay,MCF-7 cells,sub-micromolar
same,EC50,ERβ [1],69.5 nM
same,PRL-ERβ EC50 (nM),ERβ [1]; [11],sub-micromolar
same,GREB1 gene expression compared to DMSO and E2,"GREB1 [4]; compounds 1μM, E2 10nM",induced expression to the same level as E2
same,EC50,ERα [2]; PRL-ERα EC50 (nM),174 nM
same,PRL-ERα EC50 (nM),ERα [2],sub-micromolar
same,ERE-GFP activation in the zebrafish (liver or heart),[3],"Neither isosakuranetin, echinatin, nor loureirin A activated the ERE-GFP"
"C[C@]12CC[C@@H]3c4ccc(O)cc4CC[C@H]3[C@@H]1CC[C@@H]2O [E2, 17β-estradiol, reference compound]",increase in cell number of MCF-7 cells,MCF-7 cells,150%
same,fraction of cells with a visible array,ERβ [1],75%
same,induction of transcriptionally active GREB1 alleles,GREB1 [8],significant induction
same,GREB1 transcription (qPCR) compared to DMSO,GREB1 [4],activation of GREB1 transcription
same,ER signal (ERE-GFP) in the heart,[9],activate ER signal
same,ER signal (ERE-GFP) in the liver,[3],activate ER signal
"Oc1ccc(C2=Cc3ccc(O)cc3OC2)cc1 [Phenoxodiol (Haginin E), Phenoxodiol]",activity in GFP-ERβ:PRL-HeLa cells at the 100nM dose,ERβ [1],also active
same,EC50,ERα [10],~500 nM
same,GREB1 transcription (qPCR) compared to DMSO,GREB1 [4],activation of GREB1 transcription
same,ER signal (ERE-GFP) in the heart,[9],activate ER signal
same,ER signal (ERE-GFP) in the liver,[3],activate ER signal
"CN1CC[C@H](c2c(O)cc(O)c3c(=O)cc(-c4ccccc4Cl)oc23)[C@H](O)C1 [Flavopiridol (Alvocidib), Flavopiridol, reference compound]",transcriptional output (dsRed2 FISH) versus DMSO,ERα or ERβ,suppressed transcriptional output to a lower level than DMSO
COc1ccc(-c2cc(=O)c3c(O)cc(O[C@@H]4O[C@H](CO)[C@@H](O)[C@H](O)[C@H]4O[C@@H]4O[C@@H](C)[C@H](O)[C@@H](O)[C@H]4O)cc3o2)cc1O [Neodiosmin],ERα DNA binding and transcription at the 100nM dose,ERα [2],induced ERα DNA binding and transcription
COc1cc(-c2coc3cc(O)c(OC)c(O)c3c2=O)cc(O)c1OC [Irigenin],transcriptional output (dsRed2 FISH) versus DMSO,ERα or ERβ,suppressed transcription
O=c1c(-c2ccc(O)cc2)coc2cc(O)cc(O)c12 [Genistein],GREB1 transcription (qPCR) compared to DMSO,GREB1 [4],activation of GREB1 transcription
CC(C)=CCc1c(O)ccc(C(=O)/C=C/c2ccc(O)cc2)c1O [Isobavachalcone],GREB1 transcription (qPCR) compared to DMSO,GREB1 [4],activation of GREB1 transcription
same,selectivity for either estrogen receptor,ERα [2],> 5 fold
CC(C)=CCc1c(O)ccc2c1O[C@H](c1ccc(O)cc1)CC2=O [Isobavachin],activity in GFP-ERβ:PRL-HeLa cells at the 100nM dose,ERβ [1]; 100nM,also active
same,ERα DNA binding and transcription at the 100nM dose,ERα [2],induced ERα DNA binding and transcription
same,EC50,ERα [2]; PRL-ERα EC50 (nM),1.28 nM
